These results are taken from publication PMC5571359, “Screening the Medicines for Malaria Venture Pathogen Box across Multiple Pathogens Reclassifies Starting Points for Open-Source Drug Discovery” (Antimicrobial Agents and Chemotherapy, 2017).

The CC50 is the concentration that lowers cell viability or growth by half. For orientation: IC50 means the point on the concentration scale where inhibition reaches its midpoint. The Emax is the size of the effect at its maximum, as opposed to the concentration needed.

Data set [1] concerns T. cruzi C4 β-galactosidase reporter parasite in MRC 5SV2 host cells. The following applies: cited from earlier work.
Data set [2] deals with T. brucei brucei. The following applies: ref Pbox supporting information; read-out: T.b. brucei Pbox IC50; cited from earlier work.
The test system of data set [3] is T. brucei rhodesiense. The following applies: ref Pbox supporting information; read-out: T .b. rohdensie Pbox IC50; cited from earlier work.
Data set [4] deals with L. major. The arrangement: method as in Pbox supporting information. The following applies: ref Pbox supporting information; cited from earlier work.
Data set [5] relates to L. infanium (macrophages). The arrangement: method as in Pbox supporting information. The following applies: ref Pbox supporting information; cited from earlier work.
In data set [6] the test system is HepG2. The following applies: ref PBox supporting information, cited from earlier work.
In data set [7] the test system is NF54-pfs16-LUC-GFP stage IV gametocytes. The experiment in a line: Plasmodium falciparum late stage gametocyte (LSG) image-based assay. The data set is classed as cell-based. The following applies: Plasmodium falciparum.
Data set [8] concerns T. cruzi intracellular amastigotes. The experiment in a line: Intracellular anti-Trypanosoma cruzi image-based assay (amastigotes). The format is cell-based. The following applies: for pIC50 / Emax: Trypanosoma cruzi.
Data set [9] has as its system T. b. brucei 427 bloodstream trypanosomes. As to the kind of experiment: T. b. brucei resazurin viability assay. The format is cell-based, Trypanosoma brucei brucei. The following applies: for pIC50: Trypanosoma brucei. On the technique in general: Resazurin is reduced to fluorescent resorufin, in cell work by metabolically active cells.
Data set [10] concerns L. donovani MHOM/IN/80/DD8 intracellular amastigotes. As to the kind of experiment: Leishmania donovani intracellular amastigote assay in THP-1 cells. The data set is classed as cell-based. The following applies: Leishmania donovani.
In data set [11] the test system is P. falciparum ABS. The following applies: ChEMBL Data, TCMDC set, P. falciparum; read-out: TCMDC (ref 93) EX50; cited from earlier work.
Data set [12] has as its system Plasmodium falciparum 3D7 asexual blood stage. As to the kind of experiment: microbe, parasite or virus in culture.
A short description of data set [13]: HEK293 resazurin cell cytotoxicity assay. The following applies: human.
In data set [14] the test system is HEK293 cells. The experiment in a line: HEK293 resazurin cell cytotoxicity assay. The following applies: Homo sapiens.
Data set [15] relates to 3T3 host cells. As to the kind of experiment: T. cruzi assay, activity against 3T3 host cells. The data set is classed as cell-based. The following applies: reference compound set; IA = inactive at 16.4 μM. The procedure, abridged: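 3T3 cells were seeded on collagen-coated plates, incubated 24 h at 37 °C, infected with T. cruzi at MOI 5:1, and washed free of extracellular parasites after a further 24 h. Following 48 h compound exposure, cells were fixed, stained with Hoechst 33342 and HCS CellMask Green, and imaged by high-content analysis.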

In data set [16] the test system is L. donovani axenic amastigotes. The arrangement: method as in PBox supporting information. The following applies: ref PBox supporting information; cited from earlier work.
For data set [17], the system named is L. donovani (macrophages). Also on record: method as in Pbox supporting information. The following applies: ref Pbox supporting information; cited from earlier work.
Data set [18] deals with infected PMM. The arrangement: method as in Pbox supporting information. The following applies: ref Pbox supporting information, read-out: Toxicity on infected PMM Pbox IC50; cited from earlier work.
[19] abbreviates: ref Pbox supporting information, read-out: T. cruzi Pbox IC50.
[20] abbreviates: NF54, read-out: Antiplasmodial IC50 (GAM / LSG), PBox compounds, stage IV gametocytes, single determination.
Where [21] appears, read: 48 h, read-out: IC50 T. cruzi (Discovery Biology).
[22] abbreviates: read-out: IC50 T. brucei brucei (Discovery Biology).
The mark [23] stands for this setting: 3D7, read-out: Antiplasmodial IC50 (ABS), PBox compounds, P. falciparum 3D7.
[24] abbreviates: HEK293, read-out: HEK % Inhibition 20uM/IC50 Discovery Biology.
The mark [25] stands for this setting: read-out: T b.brucei Discovery Biology IC50.
[26] abbreviates: intracellular amastigotes, read-out: T cruzi Discovery Biology IC50.

pEC50, pIC50: −log10 of the molar value. Where two headings read alike, the source gives them in different places.

Take `O=C(CN1CCOCC1)Nc1ccc2ncnc(Nc3ccc(OCc4cccc(F)c4)c(Cl)c3)c2c1` [MMV688274]: the pIC50 in data set [1] (setting [19]) was 6.02; in [2] it was 5.27; in data set [3], 5.51; in [4] it was 4.91; in data set [5], less than 4.49. Moreover, in data set [6], the “HepG2 PBox CC20” value was 10.9 µM.

For the compound `c1ccc(-c2nc(NC3CCCCC3)cc(C3CC3)n2)nc1` [MMV021013], the pIC50 was 6.72 in data set [7] (setting [20]); 5.78 in data set [8] (setting [21]); 5.45 in [9] (setting [22]); 5.83 in [10] (THP-1, read-out: IC50 L. donovani (Discovery Biology), PBox compounds, intracellular amastigotes); 6.34 in data set [12] (setting [23]). Further, the pEC50 in data set [11] is 6.14. Further, the selectivity ratio at 72 h in data set [13] was greater than 5. Further, in [14] (setting [24]), the inhibition at 20 µM is 83%.

For the compound `Nc1nc2ccc(-c3cncc(Oc4ccc(F)cc4)c3)cc2[nH]1` [MMV687248], the pIC50 in data set [8] (setting [21]) was 5.40; in data set [9] (setting [22]), 5.98. Also, in [9] (HEK293), the “selectivity index (SI) T. brucei brucei versus HEK293” value is on record as greater than 20. Moreover, the “selectivity index (SI) T. brucei brucei versus HEPG2” value in data set [9] (HEPG2 (PBox data)) is reported as greater than 20. Also, in [6] (read-out: HepG2 PBox CC50 µM, HepG2 cytotoxicity), the cytotoxic concentration (CC50) was 31.5 µM. Also, in [12] (3D7, read-out: Pf 3D7 Discovery Biology IC50 µM, P. falciparum 3D7 asexual blood stage, Discovery Biology), the IC50 turned out to be 1.52 µM. Also, in data set [13], the selectivity ratio at 72 h was greater than 5.

In the case of `CC(C)(C)[C@H]1CC[C@H](CC2=C(O)C(=O)c3ccccc3C2=O)CC1` [Buparvaquone, reference compound], the pIC50 in data set [7] (NF54, read-out: IC50 P. falciparum NF54 LSG, reference compound set, 11-point dose response, IA = inactive at 20 μM) was 5.28; in [8] (reference compound set, IA = inactive at 16.4 μM, read-out: IC50 T. cruzi intracellular amastigotes), 5.31; in data set [15], less than 4.79; in [9] (reference compound set, IA = inactive at 20 μM, read-out: IC50 T. brucei brucei trypomastigotes), less than 4.70; in data set [10] (THP-1, read-out: IC50 L. donovani n = 1, reference compound set, first test, IA = inactive at 20 μM), 5.73; in [12] (3D7, read-out: IC50 P. falciparum 3D7 ABS, reference compound set, 11-point dose response, IA = inactive at 20 μM), 6.85. Also, the Emax in [8] (reference compound set, read-out: T. cruzi Emax (maximal % inhibition plateau in dose response curve)) came out at 98.5%. In addition, the inhibition at 20 µM in data set [10] (THP-1, reference compound set, second test, 20 μM, read-out: percent inhibition at the top screening dose, L. donovani n = 2) turned out to be 60%. For the same compound, in data set [13] (HEK293 cells), the IC50 at 72 h was greater than 20 µM.

For `Nc1ccc2ncnc(Nc3ccc(OCc4cccc(F)c4)c(Cl)c3)c2c1` [MMV688273], the pIC50 is 5.39 in data set [1] (setting [19]); less than 4.49 in [2]; 4.88 in [3]; 4.98 in [4]; less than 4.49 in [5]. The “HepG2 PBox CC20” value in [6] was 9.7 µM.

On to `COc1ccc(C(=N)N)cc1-c1cn(-c2ccc(C(=N)N)cc2)nn1` [MMV675998], for which the pIC50 in [9] (setting [25]) is 6.57; in data set [1] (setting [19]), 4.67; in data set [2] it was 6.60; in [3], greater than 6.89; in data set [16], 4.84; in [5], less than 4.49. Also, the results for the pIC50 in [17], in data set [18] and in [14] (setting [24]) were less than 4.52, 4.52 and less than 4.70, respectively. Further, in data set [6], the “HepG2 PBox CC20” value was 5.5 µM.

Take `CN1CCN(S(=O)(=O)c2ccc(-c3ccc4c(Nc5ncc(Cl)cn5)ccnc4c3)cc2)CC1` [MMV688283]: the pIC50 in [7] (setting [20]) is 5.39; in data set [9] (setting [25]), 5.28; in data set [1] (setting [19]), 5.42; in data set [2], 5.42; in [3], 6.02; in [4] it was 5.07. In addition, the pIC50 in data set [5] is 5.60; in data set [12] (setting [23]), 6.18; in data set [14] (setting [24]) it was less than 4.70. Besides, in [6], the “HepG2 PBox CC20” value is 8.0 µM.

Take `Cc1nc(-c2ccccn2)nc(N2CCC(Cc3ccccc3)C2)c1Cl` (centres unmarked) [MMV659004]: the pIC50 is 6.17 in [7] (setting [20]); 6.01 in data set [1] (setting [19]); 5.18 in data set [2]; 5.25 in data set [3]; 7.52 in [16]; 5.05 in data set [4]. Moreover, the pIC50 in data set [5] is 5.39; in data set [17] it was 5.38; in [18] it was 4.78; in [12] (setting [23]) it was 5.73; in [14] (setting [24]), less than 4.70. For the same compound, the “HepG2 PBox CC20” value in data set [6] was 10.2 µM.

As for `Clc1ccc(Cl)c(CO[C@H]2CCCC[C@@H]2n2ccnc2)c1` [MMV676048], the maximal response (Emax) in data set [8] (PBox kinetoplastid set compounds active against T. cruzi alone, read-out: Emax against T. cruzi (subefficacious effect)) was less than 100%. Besides, the pIC50 in data set [8] (setting [26]) was 5.49; in data set [1] (setting [19]), 5.87; in [2], less than 4.49; in data set [3] it was 4.64; in [16], 4.81; in [5] it was 4.79. The pIC50 was 4.89 in [17], 4.52 in data set [18] and less than 4.70 in data set [14] (setting [24]). Moreover, the “HepG2 PBox CC20” value in [6] is 37.1 µM.

As for `Cc1ncc(-c2ccnc(Nc3ccc(S(C)(=O)=O)cc3)n2)n1C(C)C` [MMV676604], the pIC50 is 5.93 in data set [8] (setting [26]); 6.85 in [9] (setting [25]); 5.32 in data set [10] (THP-1, intracellular amastigotes, some values marked *, read-out: L, donovani Discovery Biology IC50); 5.97 in data set [1] (setting [19]); 6.59 in [2]; greater than 6.89 in data set [3]. Moreover, the pIC50 in data set [4] is 5.50; in data set [5] it was 5.94; in data set [12] (3D7, read-out: Pf 3D7 Discovery Biology IC50, P. falciparum 3D7 asexual blood stage), 5.49; in data set [14] (HEK293, read-out: HEK % Discovery Biology IC50), 5.57. In addition, the “HepG2 PBox CC20” value in data set [6] was 0.179 µM.

Turning to `Cc1nc(-c2ccccn2)nc(N(C)CCc2ccccc2)c1Cl` [MMV658988], the pIC50 in data set [7] (setting [20]) is 6.52; in data set [1] (7 days exposure, ref PBox supporting information, read-out: T. cruzi IC50 in the PBox supporting information file) it was greater than 6.00; in [1] (setting [19]), 6.06; in data set [2], 4.83; in [3], 4.93; in data set [16] it was 7.70. For the same compound, the pIC50 in data set [5] was 5.39; in [17], 5.59; in data set [18] it was 4.78; in data set [12] (setting [23]), 5.66; in [14] (setting [24]), less than 4.70. Moreover, the “activity against T. cruzi at 8 μM in the Discovery Biology assay” value in [8] (8 μM) is “no activity”. For the same compound, the “HepG2 PBox CC20” value in data set [6] was 11.3 µM.

Turning to `FC(F)(F)c1cc(NCCc2ccccc2)nc(-c2ccccn2)n1` [MMV659010], the pIC50 in data set [7] (setting [20]) was 5.77; in data set [1] (setting [19]) it was 5.37; in data set [2], less than 4.49; in data set [3], 4.57; in [16], 6.60; in [5] it was 4.79. Besides, the pIC50 was 5.29 in [17], 4.52 in [18], less than 5.10 in data set [12] (setting [23]) and less than 4.70 in data set [14] (setting [24]). In addition, in data set [6], the “HepG2 PBox CC20” value is greater than 80 µM.

With `Clc1cccc(CO[C@H]2CCc3ccccc3[C@@H]2n2ccnn2)c1` [MMV676159], the pIC50 was 5.51 in data set [1] (setting [19]); less than 4.49 in data set [2]; less than 4.49 in data set [3]; 5.18 in [16]; less than 4.49 in data set [5]; less than 4.52 in data set [17]. In addition, the pIC50 in data set [18] was less than 4.52. Also, the “HepG2 PBox CC20” value in [6] was greater than 80 µM.

On to `CC(C)(C)OC(=O)N1CCN(c2cc(-c3ccc(Oc4ccccc4)cc3)n[nH]2)CC1` [MMV676057], for which the pIC50 was 5.03 in data set [1] (setting [19]); 5.41 in data set [2]; 5.57 in data set [3]; 5.88 in data set [16]; 4.89 in data set [4]; 4.99 in data set [5]. The pIC50 in data set [17] was less than 5.00; in data set [18], 4.70. Moreover, the “HepG2 PBox CC20” value in data set [6] is 4.0 µM.
